{"source": "the NIST ThermoML archive (doi:10.1016/j.jct.2013.05.030)", "note": "± gives the expanded uncertainty stated by the source."}
{"experiment": "not given", "conditions": "293.15 K; 101.33 kPa; Liquid; Vibrating tube method", "units": {"mass density": "kg/m3"}}
{"smiles": "CCCCCCCCCCCCCC[P+](CCCCCC)(CCCCCC)CCCCCC.O=S(=O)([N-]S(=O)(=O)C(F)(F)F)C(F)(F)F", "mass density": "1068.87 ± 8.6"}
{"experiment": "activity coefficient (dimensionless); of the first substance listed, at infinite dilution; xn = mol fraction of the nth substance listed", "conditions": "313.15 K; 101 kPa; Liquid; Chromatography; x1 = 0"}
{"smiles": "C=CCCCCC", "note": "[1-heptene] + CCCCCCCCCCCCCC[P+](CCCCCC)(CCCCCC)CCCCCC.O=S(=O)([N-]S(=O)(=O)C(F)(F)F)C(F)(F)F", "activity coefficient": "1.03 ± 0.075"}
{"smiles": "C#CCCCCC", "note": "[1-heptyne] + CCCCCCCCCCCCCC[P+](CCCCCC)(CCCCCC)CCCCCC.O=S(=O)([N-]S(=O)(=O)C(F)(F)F)C(F)(F)F", "activity coefficient": "0.726 ± 0.055"}
{"smiles": "C#CCCCC", "note": "[1-hexyne] + CCCCCCCCCCCCCC[P+](CCCCCC)(CCCCCC)CCCCCC.O=S(=O)([N-]S(=O)(=O)C(F)(F)F)C(F)(F)F", "activity coefficient": "0.693 ± 0.053"}
{"smiles": "C#CCCCCCCC", "note": "[1-nonyne] + CCCCCCCCCCCCCC[P+](CCCCCC)(CCCCCC)CCCCCC.O=S(=O)([N-]S(=O)(=O)C(F)(F)F)C(F)(F)F", "activity coefficient": "0.853 ± 0.063"}
{"smiles": "C#CCCCCCC", "note": "[1-octyne] + CCCCCCCCCCCCCC[P+](CCCCCC)(CCCCCC)CCCCCC.O=S(=O)([N-]S(=O)(=O)C(F)(F)F)C(F)(F)F", "activity coefficient": "0.836 ± 0.062"}
{"smiles": "C=CCCC", "note": "[1-pentene] + CCCCCCCCCCCCCC[P+](CCCCCC)(CCCCCC)CCCCCC.O=S(=O)([N-]S(=O)(=O)C(F)(F)F)C(F)(F)F", "activity coefficient": "0.806 ± 0.06"}
{"smiles": "C#CCCC", "note": "[1-pentyne] + CCCCCCCCCCCCCC[P+](CCCCCC)(CCCCCC)CCCCCC.O=S(=O)([N-]S(=O)(=O)C(F)(F)F)C(F)(F)F", "activity coefficient": "0.613 ± 0.048"}
{"smiles": "CC(C)=O", "note": "[acetone] + CCCCCCCCCCCCCC[P+](CCCCCC)(CCCCCC)CCCCCC.O=S(=O)([N-]S(=O)(=O)C(F)(F)F)C(F)(F)F", "activity coefficient": "0.297 ± 0.033"}
{"smiles": "c1ccccc1", "note": "[benzene] + CCCCCCCCCCCCCC[P+](CCCCCC)(CCCCCC)CCCCCC.O=S(=O)([N-]S(=O)(=O)C(F)(F)F)C(F)(F)F", "activity coefficient": "0.391 ± 0.036"}
{"smiles": "CCC(C)=O", "note": "[butanone] + CCCCCCCCCCCCCC[P+](CCCCCC)(CCCCCC)CCCCCC.O=S(=O)([N-]S(=O)(=O)C(F)(F)F)C(F)(F)F", "activity coefficient": "0.321 ± 0.034"}
{"smiles": "C1CCCCCC1", "note": "[cycloheptane] + CCCCCCCCCCCCCC[P+](CCCCCC)(CCCCCC)CCCCCC.O=S(=O)([N-]S(=O)(=O)C(F)(F)F)C(F)(F)F", "activity coefficient": "0.87 ± 0.064"}
{"smiles": "C1CCCCC1", "note": "[cyclohexane] + CCCCCCCCCCCCCC[P+](CCCCCC)(CCCCCC)CCCCCC.O=S(=O)([N-]S(=O)(=O)C(F)(F)F)C(F)(F)F", "activity coefficient": "0.795 ± 0.059"}
{"smiles": "C1CCCCCCC1", "note": "[cyclooctane] + CCCCCCCCCCCCCC[P+](CCCCCC)(CCCCCC)CCCCCC.O=S(=O)([N-]S(=O)(=O)C(F)(F)F)C(F)(F)F", "activity coefficient": "0.963 ± 0.07"}
{"smiles": "C1CCCC1", "note": "[cyclopentane] + CCCCCCCCCCCCCC[P+](CCCCCC)(CCCCCC)CCCCCC.O=S(=O)([N-]S(=O)(=O)C(F)(F)F)C(F)(F)F", "activity coefficient": "0.687 ± 0.052"}
{"smiles": "C=CCCCC", "note": "[hex-1-ene] + CCCCCCCCCCCCCC[P+](CCCCCC)(CCCCCC)CCCCCC.O=S(=O)([N-]S(=O)(=O)C(F)(F)F)C(F)(F)F", "activity coefficient": "0.907 ± 0.066"}
{"smiles": "CCCCCC", "note": "[hexane] + CCCCCCCCCCCCCC[P+](CCCCCC)(CCCCCC)CCCCCC.O=S(=O)([N-]S(=O)(=O)C(F)(F)F)C(F)(F)F", "activity coefficient": "1.1 ± 0.08"}
{"smiles": "CO", "note": "[methanol] + CCCCCCCCCCCCCC[P+](CCCCCC)(CCCCCC)CCCCCC.O=S(=O)([N-]S(=O)(=O)C(F)(F)F)C(F)(F)F", "activity coefficient": "1.08 ± 0.079"}
{"smiles": "CCCCCCCCC", "note": "[nonane] + CCCCCCCCCCCCCC[P+](CCCCCC)(CCCCCC)CCCCCC.O=S(=O)([N-]S(=O)(=O)C(F)(F)F)C(F)(F)F", "activity coefficient": "1.6 ± 0.12"}
{"smiles": "CCCCCCCC", "note": "[octane] + CCCCCCCCCCCCCC[P+](CCCCCC)(CCCCCC)CCCCCC.O=S(=O)([N-]S(=O)(=O)C(F)(F)F)C(F)(F)F", "activity coefficient": "1.4 ± 0.1"}
{"smiles": "CCCCC", "note": "[pentane] + CCCCCCCCCCCCCC[P+](CCCCCC)(CCCCCC)CCCCCC.O=S(=O)([N-]S(=O)(=O)C(F)(F)F)C(F)(F)F", "activity coefficient": "0.96 ± 0.07"}
{"smiles": "CCCO", "note": "[propan-1-ol] + CCCCCCCCCCCCCC[P+](CCCCCC)(CCCCCC)CCCCCC.O=S(=O)([N-]S(=O)(=O)C(F)(F)F)C(F)(F)F", "activity coefficient": "1.28 ± 0.095"}
{"smiles": "Cc1ccccc1", "note": "[toluene] + CCCCCCCCCCCCCC[P+](CCCCCC)(CCCCCC)CCCCCC.O=S(=O)([N-]S(=O)(=O)C(F)(F)F)C(F)(F)F", "activity coefficient": "0.452 ± 0.039"}
{"experiment": "activity coefficient (dimensionless); of the first substance listed, at infinite dilution; xn = mol fraction of the nth substance listed", "conditions": "333.15 K; 101 kPa; Liquid; Chromatography; x1 = 0"}
{"smiles": "C=CCCCCC", "note": "[1-heptene] + CCCCCCCCCCCCCC[P+](CCCCCC)(CCCCCC)CCCCCC.O=S(=O)([N-]S(=O)(=O)C(F)(F)F)C(F)(F)F", "activity coefficient": "1.06 ± 0.077"}
{"smiles": "C#CCCCCC", "note": "[1-heptyne] + CCCCCCCCCCCCCC[P+](CCCCCC)(CCCCCC)CCCCCC.O=S(=O)([N-]S(=O)(=O)C(F)(F)F)C(F)(F)F", "activity coefficient": "0.749 ± 0.056"}
{"smiles": "C#CCCCC", "note": "[1-hexyne] + CCCCCCCCCCCCCC[P+](CCCCCC)(CCCCCC)CCCCCC.O=S(=O)([N-]S(=O)(=O)C(F)(F)F)C(F)(F)F", "activity coefficient": "0.709 ± 0.054"}
{"smiles": "C#CCCCCCCC", "note": "[1-nonyne] + CCCCCCCCCCCCCC[P+](CCCCCC)(CCCCCC)CCCCCC.O=S(=O)([N-]S(=O)(=O)C(F)(F)F)C(F)(F)F", "activity coefficient": "0.915 ± 0.067"}
{"smiles": "C#CCCCCCC", "note": "[1-octyne] + CCCCCCCCCCCCCC[P+](CCCCCC)(CCCCCC)CCCCCC.O=S(=O)([N-]S(=O)(=O)C(F)(F)F)C(F)(F)F", "activity coefficient": "0.865 ± 0.063"}
{"smiles": "C=CCCC", "note": "[1-pentene] + CCCCCCCCCCCCCC[P+](CCCCCC)(CCCCCC)CCCCCC.O=S(=O)([N-]S(=O)(=O)C(F)(F)F)C(F)(F)F", "activity coefficient": "0.824 ± 0.061"}
{"smiles": "C#CCCC", "note": "[1-pentyne] + CCCCCCCCCCCCCC[P+](CCCCCC)(CCCCCC)CCCCCC.O=S(=O)([N-]S(=O)(=O)C(F)(F)F)C(F)(F)F", "activity coefficient": "0.636 ± 0.049"}
{"smiles": "CC(C)=O", "note": "[acetone] + CCCCCCCCCCCCCC[P+](CCCCCC)(CCCCCC)CCCCCC.O=S(=O)([N-]S(=O)(=O)C(F)(F)F)C(F)(F)F", "activity coefficient": "0.327 ± 0.034"}
{"smiles": "c1ccccc1", "note": "[benzene] + CCCCCCCCCCCCCC[P+](CCCCCC)(CCCCCC)CCCCCC.O=S(=O)([N-]S(=O)(=O)C(F)(F)F)C(F)(F)F", "activity coefficient": "0.405 ± 0.037"}
{"smiles": "CCC(C)=O", "note": "[butanone] + CCCCCCCCCCCCCC[P+](CCCCCC)(CCCCCC)CCCCCC.O=S(=O)([N-]S(=O)(=O)C(F)(F)F)C(F)(F)F", "activity coefficient": "0.309 ± 0.033"}
{"smiles": "C1CCCCCC1", "note": "[cycloheptane] + CCCCCCCCCCCCCC[P+](CCCCCC)(CCCCCC)CCCCCC.O=S(=O)([N-]S(=O)(=O)C(F)(F)F)C(F)(F)F", "activity coefficient": "0.881 ± 0.065"}
{"smiles": "C1CCCCC1", "note": "[cyclohexane] + CCCCCCCCCCCCCC[P+](CCCCCC)(CCCCCC)CCCCCC.O=S(=O)([N-]S(=O)(=O)C(F)(F)F)C(F)(F)F", "activity coefficient": "0.797 ± 0.059"}
{"smiles": "C1CCCCCCC1", "note": "[cyclooctane] + CCCCCCCCCCCCCC[P+](CCCCCC)(CCCCCC)CCCCCC.O=S(=O)([N-]S(=O)(=O)C(F)(F)F)C(F)(F)F", "activity coefficient": "0.998 ± 0.072"}
{"smiles": "C1CCCC1", "note": "[cyclopentane] + CCCCCCCCCCCCCC[P+](CCCCCC)(CCCCCC)CCCCCC.O=S(=O)([N-]S(=O)(=O)C(F)(F)F)C(F)(F)F", "activity coefficient": "0.698 ± 0.053"}
{"smiles": "C=CCCCC", "note": "[hex-1-ene] + CCCCCCCCCCCCCC[P+](CCCCCC)(CCCCCC)CCCCCC.O=S(=O)([N-]S(=O)(=O)C(F)(F)F)C(F)(F)F", "activity coefficient": "0.921 ± 0.067"}
{"smiles": "CCCCCC", "note": "[hexane] + CCCCCCCCCCCCCC[P+](CCCCCC)(CCCCCC)CCCCCC.O=S(=O)([N-]S(=O)(=O)C(F)(F)F)C(F)(F)F", "activity coefficient": "1.11 ± 0.081"}
{"smiles": "CO", "note": "[methanol] + CCCCCCCCCCCCCC[P+](CCCCCC)(CCCCCC)CCCCCC.O=S(=O)([N-]S(=O)(=O)C(F)(F)F)C(F)(F)F", "activity coefficient": "1.03 ± 0.074"}
{"smiles": "CCCCCCCCC", "note": "[nonane] + CCCCCCCCCCCCCC[P+](CCCCCC)(CCCCCC)CCCCCC.O=S(=O)([N-]S(=O)(=O)C(F)(F)F)C(F)(F)F", "activity coefficient": "1.67 ± 0.13"}
{"smiles": "CCCCCCCC", "note": "[octane] + CCCCCCCCCCCCCC[P+](CCCCCC)(CCCCCC)CCCCCC.O=S(=O)([N-]S(=O)(=O)C(F)(F)F)C(F)(F)F", "activity coefficient": "1.44 ± 0.11"}
{"smiles": "CCCCC", "note": "[pentane] + CCCCCCCCCCCCCC[P+](CCCCCC)(CCCCCC)CCCCCC.O=S(=O)([N-]S(=O)(=O)C(F)(F)F)C(F)(F)F", "activity coefficient": "0.978 ± 0.071"}
{"smiles": "CCCO", "note": "[propan-1-ol] + CCCCCCCCCCCCCC[P+](CCCCCC)(CCCCCC)CCCCCC.O=S(=O)([N-]S(=O)(=O)C(F)(F)F)C(F)(F)F", "activity coefficient": "1.15 ± 0.084"}
